Results reported in patent US8772241B2, “Peptide and use thereof” (Ensoltek Co., Ltd., priority 2010, dated 2014).

What was measured:
[1] = tested on: type II collagen (COL2A1); experiment: Articular chondrocyte pellet, RT-PCR expression of type II collagen; settings: for Relative expression of Type II collagen (%) (Mean ± SD): no treatment = 100, n=3, peptide as in Example 1 test (25 μM)
Description: (§1) In order to ensure that cellular properties of articular chondrocytes are maintained similarly to those of biological tissue, the cells were pelleted and cultured.
Cartilage tissue was prepared from hoof joints of less than 3-year old cows within one hour of being sacrificed at a regional slaughterhouse (located in Ojeong-dong, Daejeon, South Korea). For this purpose, a cartilage portion other than bone was cut using a surgical knife and collected to use. The cartilage tissue was sliced into a hexahedron of about 1 mm long at each side and placed in DMEM/F12 (Welgene) supplemented with Pronase (1 mg/ml, Roche), followed by reaction in a 5% CO2 incubator at 37° C. for 1.5 hours. The Pronase-treated tissue was washed twice with PBS(phosphate buffered saline) and then once with DMEM/F12. The washed cartilage tissue was placed in DMEM/F12 supplemented with 5% FBS (fetal bovine serum) (Invitrogen), Collagenase P (0.25 mg/ml, Roche) and DNase I (20 μg/ml, Sigma) and was allowed to react in a 5% CO2 incubator at 37° C. for 8 to 12 hours, such that the tissue was completely degraded. After the degradation was completed, the cells were collected by centrifugation at 500 xg for 15 minutes and washed twice with PBS. The cells were suspended at a cell density of 2×10^6 cells/ml in DMEM/F12 supplemented with 10% FBS and ascorbate (50 μg/ml, Sigma), and lml/tube of the cells were dispensed into 15 ml conical tubes. The cells were pelleted by centrifugation at 500 xg for 10 minutes and cultured in a 5% CO2 incubator at 37° C. for 2 days, thereby preparing a cell pellet which is solid. The pellet was transferred to a 24-well plate and cultured for 5 days. […] On Day 13, the cells were cultured in serum-free media for 24 hours.
RNA was isolated from the cultured pellet using TRIZOL (Invitrogen) and quantified by absorbance at 260 nm. cDNA was synthesized from 2.25 μg of RNA, using a random hexamer and 5× Reverse Transcriptase Master premix (Elpis Biotech, South Korea). Using 1 μl of synthesized cDNA, amplification was carried out by polymerase chain reaction (PCR) to investigate expression levels of genes. The genes to be investigated are as follows: a gene for chondrocyte-characteristic type II collagen (COL2A1) as a gene for confirming the regeneration of articular cartilage tissue; a gene for matrix metallopeptidase 13 (MMP13) which is over-expressed in damaged cartilage tissue and is involved in the degradation of the matrix, as a gene for confirming whether or not it is capable of preventing additional cartilage damage; and a gene for type X collagen (COL10A1) characteristic to hypertrophic chondrocytes involved in the ossification of articular tissue, as a gene for confirming whether or not it is over-activated and progressed to ossification.
Specifically, PCR was carried out under the following reaction conditions. The PCR reaction employed 1 μl of cDNA, 10 μl of 2× Taq polymerase master mix (Solgent), 0.5 μl of each primer set (10 pmole/μl), and 8 μl of distilled water. PCR amplification consisted of denaturation at 94° C. for 2 minutes, followed by reaction at 94° C. for 30 seconds, at 58° C. for 45 seconds and at 72° C. or 1 minute, with 32 cycles for Type II collagen, Type X collagen and MMP13, and 26 cycles for GAPDH, respectively.

[2] = tested on: damaged cartilage tissue explants (articular chondrocyte explants); experiment: Cartilage regeneration in damaged cartilage tissue explants; format: cell-based, cows; settings: for changes in damaged region of explant (micrograph, FIG. 1): 25 μM peptide
Description: Using a syringe (21G) whose tip was truncated and ground, damaged regions were prepared by making vertical holes to the surface uniformly at the center of the explant.
The perforated tissue explants were divided into 4 groups including a control group. […] In addition, the 1-week-incubated tissue explant and the 6-week-incubated tissue explant were fixed, respectively, in a 3.7% formaldehyde/phosphate buffered saline(3.7% formaldehyde/PBS). Then, according to the experimental method of standard histochemistry, paraffin section slides were prepared, followed by hematoxylin & eosin (H&E) staining and microscopic examination of cell shape and distribution in terms of morphology. Collagen was subjected to Masson's trichrome staining, and the shape and distribution of cells in the tissue were examined under a microscope. For comparison, the control group was treated in the same manner as in the group treated with the peptide of Example 1, except that the peptide of Example 1 was not treated.

[3] = tested on: matrix metallopeptidase 13 (MMP13); experiment: Articular chondrocyte pellet, RT-PCR expression of MMP13; format: cell-based, cows; settings: 25 μM peptide; normalized to GAPDH
Description: as §1
(§2) Cartilage tissue was prepared from hoof joints of less than 3-year old cows within one hour of being sacrificed at a regional slaughterhouse (located in Ojeong-dong, Daejeon, South Korea). For this purpose, a cartilage portion other than bone was cut using a surgical knife and collected to use. The cartilage tissue was sliced into a hexahedron of about 1 mm long at each side and placed in DMEM/F12 (Welgene) supplemented with Pronase (1 mg/ml, Roche), followed by reaction in a 5% CO2 incubator at 37° C. for 1.5 hours. The Pronase-treated tissue was washed twice with PBS(phosphate buffered saline) and then once with DMEM/F12. The washed cartilage tissue was placed in DMEM/F12 supplemented with 5% FBS (fetal bovine serum) (Invitrogen), Collagenase P (0.25 mg/ml, Roche) and DNase I (20 μg/ml, Sigma) and was allowed to react in a 5% CO2 incubator at 37° C. for 8 to 12 hours, such that the tissue was completely degraded. […]
(§3) RNA was isolated from the cultured pellet using TRIZOL (Invitrogen) and quantified by absorbance at 260 nm. cDNA was synthesized from 2.25 μg of RNA, using a random hexamer and 5× Reverse Transcriptase Master premix (Elpis Biotech, South Korea). […]

[4] = tested on: type X collagen (COL10A1); experiment: Articular chondrocyte pellet, RT-PCR expression of type X collagen; format: cell-based, cows; settings: 25 μM peptide; normalized to GAPDH
Description: as §1, §2, §3

[5] = tested on: degenerative arthritis model; experiment: Cartilage regeneration in degenerative arthritis model (anterior cruciate ligament excision); format: in vivo, New Zealand white rabbits; settings: intra-articular cavity injection once a week for 4 weeks
Description: As experimental animals, 18 to 22-week-old male New Zealand white rabbits (n=10), weighing 3 to 3.5 kg, were purchased from Orient Bio Inc. (South Korea). The animal experiments were performed in accordance with guidelines of the Institute of Laboratory Animal Resources (ILAR) under approval of Institutional Animal Care and Use Committee of Samsung Biomedical Research Institute (SBRI, Seoul, South Korea). Degeneration of articular cartilage was induced by surgically dissecting the patellar anterior cruciate ligament of rabbits and breeding the animals in a cage for 4 weeks. The animals were divided into a control group and an experimental group.
The rabbits were put under general anesthesia by intramuscularly injecting 2.5 mg/kg of xylazine (Rompun, Bayer) and 8 mg/kg of Tiletamine/Zolazepam (Zoletil, Virbac). Then, the patellar joints of right hind legs of animals were shaved and disinfected. Patellar skins and joint capsules were excised and patellae were displaced to expose anterior cruciate ligaments. Thereafter, the ligament was excised using a razor blade (No. 11) and the joint capsule and skin were sutured. After the surgical operation was completed, the rabbits were raised in a cage for 4 weeks while allowing for routine motion. The animals were housed under the following conditions: temperature of 20 to 25° C. humidity of 10% to 50%, and Light/Dark (L/D) cycle: (light from 08:00 a.m. to 20:00 p.m.). All animals were fed once a day. At Week 4 after the surgical operation, the rabbits were divided into two groups, followed by intra-articular cavity injection. The control group was given an injection of a vehicle (5% lactose/physiological saline). For the experimental group, 200 μl of 52.5 μM peptide solution was injected to the group to which 30 μM of the peptide of Example 1 was administered, and 200 μl of 157.5 μM peptide solution was injected to the group to which 90 μM of the peptide of Example 1 was administered. The above-mentioned peptide was prepared in a solvent of 5% lactose/physiological saline prior to use. An injection was given once a week for 4 weeks. 1 and 5 weeks after the final injection (Week 8 and 12 after the first operation), the experimental animals were euthanized by vascular injection of 1 to 2 mM/kg of KCl under deep anesthesia.
The proximal portion (femoral region) of the patellar articular bone was excised. For the comparison with normal tissue, left normal articular region was also additionally excised, followed by naked-eye examination and photographing. The excised articular regions were fixed in 10% formalin, decalcified by using a decalcifier solution (CalciClear Rapid, National Diagnostics), and then made into paraffin blocks. The frontal plane of articular bone was cut into a thickness of 4 μm, thereby preparing a slide. […]

“Asp-Leu-Arg-Leu-Asp (DLRLD; Artificial peptide sequence prepared by coupling amino acid units one by one from the C-terminal, by Fmoc SPPS (9-flourenlymethyloxycarbonyl solid phase peptide synthesis) using an automated peptide synthesizer.) [Example 11]” was tested, and the “Relative expression of Type II collagen (%) (Mean ± SD)” value (“Relative expression … (%) (Mean ± SD)” for short) [1] was 157 ± 34%.

With “Asp-Leu-Arg-Leu-Glu (DLRLE; Artificial peptide sequence prepared by coupling amino acid units one by one from the C-terminal, by Fmoc SPPS (9-flourenlymethyloxycarbonyl solid phase peptide synthesis) using an automated peptide synthesizer.) [Example 12]” the “Relative expression … (%) (Mean ± SD)” value [1] was 159 ± 28%.

In the case of “Asp-Leu-His-Leu-Asp (DLHLD; Artificial peptide sequence prepared by coupling amino acid units one by one from the C-terminal, by Fmoc SPPS (9-flourenlymethyloxycarbonyl solid phase peptide synthesis) using an automated peptide synthesizer.) [Example 7]”, the “Relative expression … (%) (Mean ± SD)” value [1] is reported as 190 ± 38%.

For “Asp-Leu-His-Leu-Glu (DLHLE; Artificial peptide sequence prepared by coupling amino acid units one by one from the C-terminal, by Fmoc SPPS (9-flourenlymethyloxycarbonyl solid phase peptide synthesis) using an automated peptide synthesizer.) [Example 8]”, the “Relative expression … (%) (Mean ± SD)” value [1] was 115 ± 42%.

In the case of “Asp-Leu-Lys-Leu-Asp (DLKLD; Artificial peptide sequence prepared by coupling amino acid units one by one from the C-terminal, by Fmoc SPPS (9-flourenlymethyloxycarbonyl solid phase peptide synthesis) using an automated peptide synthesizer.) [Example 9]”, the “Relative expression … (%) (Mean ± SD)” value [1] is reported as 147 ± 41%.

For “Asp-Leu-Lys-Leu-Glu (DLKLE; Artificial peptide sequence prepared by coupling amino acid units one by one from the C-terminal, by Fmoc SPPS (9-flourenlymethyloxycarbonyl solid phase peptide synthesis) using an automated peptide synthesizer.) [Example 10]”, the “Relative expression … (%) (Mean ± SD)” value [1] was 166 ± 26%.

In the case of “Glu-Leu-Arg-Leu-Asp (ELRLD; Artificial peptide sequence prepared by coupling amino acid units one by one from the C-terminal, by Fmoc SPPS (9-flourenlymethyloxycarbonyl solid phase peptide synthesis) using an automated peptide synthesizer.) [Example 5]”, the “Relative expression … (%) (Mean ± SD)” value [1] is reported as 149 ± 27%.

In the case of Glu-Leu-Arg-Leu-Glu [Example 6], the “Relative expression … (%) (Mean ± SD)” value [1] is reported as 158 ± 38%.

With “Glu-Leu-His-Leu-Asp (ELHLD; Artificial peptide sequence prepared by coupling amino acid units one by one from the C-terminal, by Fmoc SPPS (9-flourenlymethyloxycarbonyl solid phase peptide synthesis) using an automated peptide synthesizer.) [Example 1]” the “damaged region of explant, hematoxylin & eosin staining (FIG. 4)” value ([2]; 6-week culture, 25 μM peptide and/or 2 ng/ml TGFβ1) was “the damaged region was narrowed”, the “changes in damaged region of explant (micrograph, FIG. 1)” value (shortened to “changes in damaged region of explant”) ([2]; after 2 weeks) was “gradually decreased” and the “changes in damaged region of explant” value ([2]; after 4 weeks, with or without 2 ng/ml TGFβ1) was “cells began to adhere around the damaged region”. The “changes in damaged region of explant” value ([2]; after 6 weeks, with or without 2 ng/ml TGFβ1) was “remarkably reduced”, the “decrease in the expression of MMP13, as compared to the control group” value [3] was 10% and the “decrease in the expression of type X collagen (COL10A1), as compared to the control group” value [4] was 69%. The “proteoglycan in the cartilage matrix, Safranin O staining (FIG. 10)” value ([5]; 30 μM and 90 μM) was “increased synthesis of proteoglycan in a dose-dependent manner”, the “articular cartilage tissue observed by naked eyes (FIG. 8)” value ([5]; 30 μM, 90 μM) was “smooth surface and gloss close to the normal state” and the “H&E staining pattern of cartilage tissue (FIG. 9)” value [5] was “staining pattern similar to that of the normal group”. The “cell size in H&E staining (FIG. 9)” value [5] was “increased cell size”, the “increase in the expression of type II collagen, as compared to the control group” value ([1]; 25 μM peptide, normalized to GAPDH) was 55% and the “Relative expression … (%) (Mean ± SD)” value [1] was 155 ± 12%.

For “Glu-Leu-His-Leu-Glu (ELHLE; Artificial peptide sequence prepared by coupling amino acid units one by one from the C-terminal, by Fmoc SPPS (9-flourenlymethyloxycarbonyl solid phase peptide synthesis) using an automated peptide synthesizer.) [Example 2]”, the “Relative expression … (%) (Mean ± SD)” value [1] was 163 ± 19%.

“Glu-Leu-Lys-Leu-Asp (ELKLD; Artificial peptide sequence prepared by coupling amino acid units one by one from the C-terminal, by Fmoc SPPS (9-flourenlymethyloxycarbonyl solid phase peptide synthesis) using an automated peptide synthesizer.) [Example 3]” was tested, and the “Relative expression … (%) (Mean ± SD)” value [1] was 161 ± 29%.

In the case of “Glu-Leu-Lys-Leu-Glu (ELKLE; Artificial peptide sequence prepared by coupling amino acid units one by one from the C-terminal, by Fmoc SPPS (9-flourenlymethyloxycarbonyl solid phase peptide synthesis) using an automated peptide synthesizer.) [Example 4]”, the “Relative expression … (%) (Mean ± SD)” value [1] is reported as 124 ± 12%.
